In patent US8927717B1, “Thiochromeno[2,3-c]quinolin-12-one derivatives, preparation method and application thereof” (National Defense Medical Center, priority 2014, dated 2015):

Legend:
Type in all cases: cell-based
CCRF-CEM = test system: CCRF-CEM
HL-60(TB) = test system: HL-60(TB)
K-562 = test system: K-562
MOLT-4 = test system: MOLT-4
RPMI-8226 = test system: RPMI-8226
SR = test system: SR
A549/ATCC = test system: A549/ATCC
HOP-62 = test system: HOP-62
NCI-H226 = test system: NCI-H226
NCI-H23 = conditions: Non-small cell lung cancer; 10^−5 molar; 48 hours; SRB
NCI-H460 = test system: NCI-H460
NCI-H522 = test system: NCI-H522
COLO 205 = test system: COLO 205
HCT-116 = test system: HCT-116
HCT-15 = test system: HCT-15
HT29 = test system: HT29
KM12 = experiment: cells
SW-620 = test system: SW-620
SF-295 = test system: SF-295
SNB-75 = test system: SNB-75
[1] = Leukemia, 10^−5 molar, 48 hours, SRB
[2] = Homo sapiens, A549/ATCC, five dose
[3] = Non-small cell lung cancer, 10^−5 molar, 48 hours, SRB
[4] = Homo sapiens, HOP-62, five dose
[5] = Homo sapiens, NCI-H226, five dose
[6] = Homo sapiens, NCI-H460, five dose
[7] = Homo sapiens, NCI-H522, five dose
[8] = Colon cancer, 10^−5 molar, 48 hours, SRB
[9] = Homo sapiens, COLO 205, five dose
[10] = Homo sapiens, HCT-116, five dose
[11] = Homo sapiens, HCT-15, five dose
[12] = Homo sapiens, HT-29, HT29, five dose
[13] = Homo sapiens, SW-620, five dose
[14] = CNS cancer, 10^−5 molar, 48 hours, SRB
[15] = Homo sapiens, SF-295, five dose
[16] = Homo sapiens, SNB-75, five dose

CN(C)CCNc1nc2ccccc2c2c(=O)c3cc(Cl)ccc3sc12 [Compound N7, 10-Chloro-6-((2-(dimethylamino)ethyl)amino)-12H-thiochromeno[2,3-c]quinolin-12-one]
TGI (CCRF-CEM; CCRF-CEM, five dose): 3.41 µM
GI50 (CCRF-CEM; Homo sapiens, CCRF-CEM, five dose): 1.63 µM
CC50 (CCRF-CEM; Homo sapiens, CCRF-CEM, five dose, read-out: LC50 (the source's name)): 7.15 µM
Growth percent CCRF-CEM (CCRF-CEM; [1]): −53.54%
TGI (HL-60(TB); HL-60(TB), five dose): 3.49 µM
GI50 (HL-60(TB); Homo sapiens, HL-60(TB), five dose): 1.76 µM
CC50 (HL-60(TB); Homo sapiens, HL-60(TB), five dose, read-out: LC50 (the source's name)): 6.95 µM
Growth percent HL-60(TB) (HL-60(TB); [1]): −47.40%
GI50 (K-562; Homo sapiens, K562, K-562, five dose): 1.33 µM
CC50 (K-562; Homo sapiens, K562, K-562, five dose, read-out: LC50 (the source's name)): 6.74 µM
TGI (K-562; K-562, five dose): 3.00 µM
Growth percent K-562 (K-562; [1]): −58.60%
GI50 (MOLT-4; Homo sapiens, MOLT-4, five dose): 1.71 µM
CC50 (MOLT-4; Homo sapiens, MOLT-4, five dose, read-out: LC50 (the source's name)): 6.74 µM
Growth percent MOLT-4 (MOLT-4; [1]): −56.34%
TGI (MOLT-4; MOLT-4, five dose): 3.40 µM
GI50 (RPMI-8226; Homo sapiens, RPMI-8226, five dose): 1.76 µM
CC50 (RPMI-8226; Homo sapiens, RPMI-8226, five dose, read-out: LC50 (the source's name)): 7.69 µM
Growth percent RPMI-8226 (RPMI-8226; [1]): −37.68%
TGI (RPMI-8226; RPMI-8226, five dose): 3.68 µM
GI50 (SR; Homo sapiens, SR, five dose): 1.7 µM
LC50 (50% lethal concentration) (SR; Homo sapiens, SR, five dose): 8.14 µM
Growth percent SR (SR; [1]): −34.76%
TGI (SR; SR, five dose): 3.73 µM
TGI (A549/ATCC; A549/ATCC, five dose): 3.17 µM
GI50 (A549/ATCC; [2]): 1.66 µM
LC50 (A549/ATCC; [2]): 6.06 µM
Growth percent A549/ATCC (A549/ATCC; [3]): 23.38%
TGI (HOP-62; HOP-62, five dose): 2.92 µM
GI50 (HOP-62; [4]): 1.54 µM
LC50 (lethal concentration 50) (HOP-62; [4]): 5.56 µM
Growth percent HOP-62 (HOP-62; [3]): 56.42%
GI50 (NCI-H226; [5]): 1.84 µM
LC50 (concentration giving 50% net cell kill) (NCI-H226; [5]): 24.3 µM
TGI (NCI-H226; NCI-H226, five dose): 4.38 µM
Growth percent NCI-H226 (NCI-H226; [3]): 58.08%
Growth percent NCI-H23 (NCI-H23): 72.59%
GI50 (NCI-H460; [6]): 1.76 µM
LC50 (NCI-H460; [6]): 6.5 µM
TGI (NCI-H460; NCI-H460, five dose): 3.38 µM
Growth percent NCI-H460 (NCI-H460; [3]): −71.14%
GI50 (NCI-H522; [7]): 1.59 µM
LC50 (concentration causing 50% net cell kill) (NCI-H522; [7]): 5.9 µM
TGI (NCI-H522; NCI-H522, five dose): 3.07 µM
Growth percent NCI-H522 (NCI-H522; [3]): −8.99%
TGI (COLO 205; COLO 205, five dose): 3.17 µM
Growth percent COLO 205 (COLO 205; [8]): −82.85%
GI50 (COLO 205; [9]): 1.66 µM
LC50 (COLO 205; [9]): 6.05 µM
Growth percent HCT-116 (HCT-116; [8]): −96.59%
TGI (HCT-116; HCT-116, five dose): 3.18 µM
GI50 (HCT-116; [10]): 1.57 µM
LC50 (concentration killing 50% of cells) (HCT-116; [10]): 6.45 µM
Growth percent HCT-15 (HCT-15; [8]): −30.05%
TGI (HCT-15; HCT-15, five dose): 3.14 µM
GI50 (HCT-15; [11]): 1.59 µM
LC50 (HCT-15; [11]): 6.21 µM
Growth percent HT29 (HT29; [8]): −84.24%
TGI (HT29; HT29, five dose): 3.36 µM
GI50 (HT29; [12]): 1.65 µM
LC50 (concentration killing 50% of cells) (HT29; [12]): 6.88 µM
Growth percent KM12 (KM12; [8]): −77.07%
GI50 (KM12; Homo sapiens, KM12, five dose): 1.78 µM
LC50 (KM12; Homo sapiens, KM12, five dose): 6.03 µM
TGI (KM12; KM12, five dose): 3.28 µM
Growth percent SW-620 (SW-620; [8]): −67.82%
GI50 (SW-620; [13]): 1.71 µM
LC50 (SW-620; [13]): 6.36 µM
TGI (SW-620; SW-620, five dose): 3.29 µM
Growth percent SF-295 (SF-295; [14]): −32.59%
GI50 (SF-295; [15]): 1.73 µM
LC50 (SF-295; [15]): 5.98 µM
TGI (SF-295; SF-295, five dose): 3.21 µM
Growth percent SNB-75 (SNB-75; [14]): 33.36%
GI50 (SNB-75; [16]): 1.28 µM
LC50 (SNB-75; [16]): 12.1 µM
